From patent publication US6822100B2 (Bristol-Myers Squibb Company, priority 2001, dated 2004)

Key:
[1] = target: T1, recombinant human dopamine D2L receptors (Homo sapiens, UniProt P14416); test: Dopamine Binding Assay; conditions: HEK-D2L cell membranes, 150 pM [3H]-spiperone, Cheng and Prusoff
T1 construct: expressed in transfected cells; host or cells: HEK-293 (HEK-D2L), membrane homogenates
Outline: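 Competition binding on HEK-293 membranes stably expressing human D2L (~5 μg protein) with 150 pM [3H]-spiperone, 1.5 h at 22 °C in 50 mM Tris pH 7.4, 1 mM EDTA, 6 mM MgCl2. Filtration read-out; non-specific binding defined with 2 μM (+)butaclamol, Ki by Cheng-Prusoff.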

[2] = target: T2, human serotonin transporters (Homo sapiens, UniProt P31645); test: Serotonin Transporter Binding Assay; conditions: SERT Ki (nM), HEK-hSERT cell membranes, 1 nM [3H]-citalopram, Cheng and Prusoff
T2 construct: expressed in transfected cells; host or cells: HEK-293 (HEK-hSERT), membrane homogenates
T2 sequence (P31645 whole entry): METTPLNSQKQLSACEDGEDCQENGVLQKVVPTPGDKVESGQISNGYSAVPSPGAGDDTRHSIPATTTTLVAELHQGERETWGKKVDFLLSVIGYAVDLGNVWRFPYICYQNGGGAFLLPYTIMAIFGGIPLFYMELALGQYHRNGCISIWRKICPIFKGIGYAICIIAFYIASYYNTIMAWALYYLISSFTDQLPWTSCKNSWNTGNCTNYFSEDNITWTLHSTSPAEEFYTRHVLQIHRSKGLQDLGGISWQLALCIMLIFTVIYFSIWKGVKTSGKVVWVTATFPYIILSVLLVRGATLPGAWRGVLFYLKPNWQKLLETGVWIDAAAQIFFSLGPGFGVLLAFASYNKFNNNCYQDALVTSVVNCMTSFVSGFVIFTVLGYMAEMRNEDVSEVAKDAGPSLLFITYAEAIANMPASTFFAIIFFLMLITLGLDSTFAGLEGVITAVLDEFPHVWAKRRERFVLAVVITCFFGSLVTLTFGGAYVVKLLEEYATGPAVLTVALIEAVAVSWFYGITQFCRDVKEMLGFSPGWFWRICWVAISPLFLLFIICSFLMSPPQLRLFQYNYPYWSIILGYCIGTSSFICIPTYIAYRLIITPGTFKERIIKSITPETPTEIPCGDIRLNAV
Outline: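 Membranes from HEK-293 cells stably expressing hSERT were incubated 1 hr at 25° C with 1 nM [^3H]-citalopram and test compound in 50 mM Tris pH 7.4, 120 mM NaCl, 5 mM KCl, then filtered. Non-specific binding was defined by 10 μM fluoxetine. IC50 came from displacement curves, and Ki by Cheng–Prusoff.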

T1 sequence (P14416 whole entry): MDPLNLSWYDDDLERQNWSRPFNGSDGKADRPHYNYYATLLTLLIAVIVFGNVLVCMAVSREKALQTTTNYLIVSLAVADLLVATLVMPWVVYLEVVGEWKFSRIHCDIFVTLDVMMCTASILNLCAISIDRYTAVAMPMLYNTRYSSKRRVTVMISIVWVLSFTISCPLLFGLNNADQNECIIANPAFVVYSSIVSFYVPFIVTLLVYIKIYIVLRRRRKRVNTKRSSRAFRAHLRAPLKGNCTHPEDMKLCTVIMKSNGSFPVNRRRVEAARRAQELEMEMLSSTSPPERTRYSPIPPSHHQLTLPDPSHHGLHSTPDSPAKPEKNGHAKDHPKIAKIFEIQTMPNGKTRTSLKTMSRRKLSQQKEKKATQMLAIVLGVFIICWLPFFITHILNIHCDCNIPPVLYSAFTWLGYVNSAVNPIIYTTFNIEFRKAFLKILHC

Structure (SMILES): CN(C)C[C@H]1C[C@@H]1c1c[nH]c2ccc(F)cc12 [Example 4, (1S,2S)-trans-1-(N,N-dimethylaminomethyl)-2-[5-fluoroindol-3-yl]-cyclopropane]
- Ki [1]: > 1000 nM
- Ki [2]: < 1 nM
- melting point: 88 to 90 °C
